According to patent US11076595B2, “1-(n,n-disubstituted carbamoyl) 4-(substituted sulfonyl)triazolin-5-one derivative, 4-(n,n-disubstituted carbamoyl) 1-(substituted sulfonyl)triazolin-5-one derivative, and herbicide containing said derivative as active ingredient” (HOKKO CHEMICAL INDUSTRY CO., LTD., priority 2017, dated 2021):

How the values were obtained:
Type in all cases: in vivo
Echinochloa crus-galli [1] = assay: Test Example 11: herbicidal effect test by soil treatment in paddy field; conditions: 120 g/10a active ingredient, 14 days after treatment
Method in brief: (§1)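 Dry weight at day 14 relative to untreated controls gives the suppression rate; duplicate pots. Treatment: 120 g a.i./10 are into paddy water at sowing.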

Lindernia pyxidaria [2] = assay: as above; conditions: 120 g/10a active ingredient, 14 days after treatment
Method in brief: as §1

Monochoria vaginalis [3] = assay: as above; conditions: 120 g/10a active ingredient, 14 days after treatment
Method in brief: as §1

Scirpus juncoides [4] = assay: as above; conditions: 120 g/10a active ingredient, 14 days after treatment
Method in brief: as §1

Echinochloa crus-galli [5] = assay: Test Example 12: herbicidal effect test by treatment during growing period in paddy field; conditions: 120 g/10a; treatment seven days after sowing in flooded paddy pot; assessed 14 days after treatment
Method in brief: (§2)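 Seeds (30 per species) are sown shallowly into fertilized, puddled paddy soil kept under ~3 cm of water in a greenhouse. One week later, compound formulated as an emulsifiable concentrate is applied dropwise to the water at 120 g a.i./10 are. After 14 days, dry weights give percent suppression against untreated controls.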

Lindernia pyxidaria [6] = assay: as above; conditions: 120 g/10a; treatment seven days after sowing in flooded paddy pot; assessed 14 days after treatment
Method in brief: as §2

Monochoria vaginalis [7] = assay: as above; conditions: 120 g/10a; treatment seven days after sowing in flooded paddy pot; assessed 14 days after treatment
Method in brief: as §2

Scirpus juncoides [8] = assay: as above; conditions: 120 g/10a; treatment seven days after sowing in flooded paddy pot; assessed 14 days after treatment
Method in brief: as §2

Amaranthus viridis = assay: Test Example 13: herbicidal effect test by soil treatment in upland field; conditions: 120 g/10a, 14 days after treatment
Procedure: (§3) A pot having a size of 36 cm^2 was filled with field soil (alluvial soil) and after mixing the soil of the surface layer of 1 cm with 20 grains of each weed seed of crabgrass, Echinochloa crus-galli, Chenopodium album and Amaranthus viridis, the surface layer was pressed lightly. One day after the sowing, an emulsifiable concentrate prepared according to Formulation Example 15 by using the compound shown in Table 11 below was diluted with water, and the water-diluted formulation was sprayed on the soil surface at a ratio of 100 liter per 10 are. The application rate of the active ingredient, by conversion, corresponded to 120 g per 10 are. Fourteen Days after the formulation treatment, the herbicidal effect was evaluated by the same criteria as in Test Example 11.

Chenopodium album = assay: as above; conditions: 120 g/10a, 14 days after treatment
Procedure: as §3

Echinochloa crus-galli [9] = assay: as above; conditions: 120 g/10a, 14 days after treatment
Procedure: as §3

crabgrass = assay: as above; conditions: 120 g/10a, 14 days after treatment
Procedure: as §3

| Structure (SMILES) | Weed suppression rate (%) Echinochloa crus-galli (Echinochloa crus-galli [1]) | Weed suppression rate (%) Lindemia pyxidaria (Lindernia pyxidaria [2]) | Weed suppression rate (%) Monochoria vaginalis (Monochoria vaginalis [3]) | Weed suppression rate (%) Scirpus juncoides (Scirpus juncoides [4]) | Weed suppression rate (%) Echinochloa crus-galli (Echinochloa crus-galli [5]) | Weed suppression rate (%) Lindemia pyxidaria (Lindernia pyxidaria [6]) | Weed suppression rate (%) Monochoria vaginalis (Monochoria vaginalis [7]) | Weed suppression rate (%) Scirpus juncoides (Scirpus juncoides [8]) | herbicidal effect, Amaranthus viridis (Amaranthus viridis) | herbicidal effect, Chenopodium album (Chenopodium album) | herbicidal effect, Echinochloa crus-galli (Echinochloa crus-galli [9]) | herbicidal effect, Crabgrass (crabgrass) |
| --- | --- | --- | --- | --- | --- | --- | --- | --- | --- | --- | --- | --- |
| Cc1cc(F)ccc1N(C(=O)n1cnn(S(C)(=O)=O)c1=O)C(C)C [Compound 11-25] | 90% | 70% | 60% | 90% | 100% | 70% | 70% | 100% | 30% | 30% | 80% | 100% |
| CC(C)N(C(=O)n1cnn(S(=O)(=O)C(F)(F)F)c1=O)c1ccc(F)cc1F [Compound 11-95] | 100% | 100% | 50% | 100% | 90% | 60% | 90% | 70% | 0% | 0% | 70% | 70% |
| Cc1cc(F)ccc1N(C(=O)n1cnn(S(=O)(=O)C2CC2)c1=O)C(C)C [Compound 11-211] | 100% | 100% | 80% | 90% | 100% | 80% | 80% | 100% | 70% | 70% | 100% | 100% |
| CC(C)N(C(=O)n1cnn(S(=O)(=O)C2CC2)c1=O)c1ccc(C#N)cc1Cl [Compound 11-222] | 90% | 80% | 80% | 90% | 90% | 80% | 80% | 90% | 90% | 80% | 80% | 90% |
| CC(C)N(C(=O)n1cnn(S(=O)(=O)C2CCCCC2)c1=O)c1ccccc1F [Compound 11-284] | 100% | 100% | 100% | 100% | 100% | 100% | 100% | 90% | 90% | 80% | 80% | 90% |
| Cc1ccc(N(C(=O)n2cnn(S(=O)(=O)C3CCCCC3)c2=O)C(C)C)c(F)c1 [Compound 11-308] | 90% | 90% | 90% | 90% | 90% | 80% | 80% | 90% | 90% | 80% | 80% | 90% |
| Cc1cc(Cl)ccc1N(C(=O)n1cnn(S(=O)(=O)C2CCCCC2)c1=O)C(C)C [Compound 11-309] | 90% | 80% | 80% | 90% | 90% | 80% | 80% | 90% | 90% | 80% | 80% | 90% |
